Entries after “also recorded” stand apart in the source; their conditions may differ. Like-named read-outs stand apart in the source and are kept apart here.
What was measured:
[1] = system: AKT and ERK1/2 phosphorylation; parameters: method as in PMID 27539855, PMID 27736957; conditions: mouse osteoclasts in vitro; cited from earlier work
[2] = Plasma pharmacokinetics in the phase I study; format: in vivo, human; conditions: for half-life / AUC(0-t) / Cmax / Tmax: human, plasma; for half-life: read-out: t1/2 Mean (SD) (converted); for AUC(0-t): read-out: AUC0-24 Mean (SD); for Cmax: read-out: Cmax Mean (SD)
Protocol: Blood samples were collected for plasma PK assessments pre-dosing and at 1, 2, 3, 4, 6, 8, 12, and 24 h after TAS-115 administration on Days 1 and 8 of cycle 1 in part 1, and on Days 1, 8, and 19 of cycle 1 in part 2 (only pre-dosing on Day 8). TAS-115 concentrations were measured by validated liquid chromatography-tandem mass spectrometry. A preliminary assessment of the effect of food on the PK profile was performed. Blood samples after administration under fed and empty stomach conditions were collected from the first six patients in the expansion part. Pharmacokinetic parameters were determined using non-compartmental analyses (Phoenix® WinNonlin® version 6.4; Certara LP, Princeton, NJ, USA).

recombinant VEGFR2 = system: recombinant VEGFR2; parameters: method as in PMID 24140932; conditions: read-out: IC50 against recombinant VEGFR2; cited from earlier work
[3] = expansion part, 650 mg, six patients, not statistically significant
[4] = oral, 200 mg/day, Part 1, Day 1 (single administration), 200 mg/day, n=3
[5] = oral, 200 mg/day, Part 1, Day 8 (multiple administration), 200 mg/day, n=3
[6] = oral, 300 mg/day, Part 1, Day 1 (single administration), 300 mg/day, n=3
[7] = oral, 300 mg/day, Part 1, Day 8 (multiple administration), 300 mg/day, n=2
[8] = oral, 450 mg/day, Part 1, Day 1 (single administration), 450 mg/day, n=3
[9] = oral, 450 mg/day, Part 1, Day 8 (multiple administration), 450 mg/day, n=3
[10] = oral, 650 mg/day, Expansion part, Empty Stomach, 650 mg/day, n=6
[11] = oral, 650 mg/day, Expansion part, Fed, 650 mg/day, n=6
[12] = oral, 650 mg/day, Part 1, Day 1 (single administration), 650 mg/day, n=6
[13] = oral, 650 mg/day, Part 1, Day 8 (multiple administration), 650 mg/day, n=5
[14] = oral, 650 mg/day, Part 2, Day 1 (single administration), 650 mg/day, n=6
[15] = oral, 650 mg/day, Part 2, Day 19 (multiple administration), 650 mg/day, n=6
[16] = oral, 800 mg/day, Part 1, Day 1 (single administration), 800 mg/day, n=6
[17] = oral, 800 mg/day, Part 1, Day 8 (multiple administration), 800 mg/day, n=6

## CNC(=O)c1cc2c(Oc3ccc(NC(=S)NC(=O)Cc4ccccc4)cc3F)ccnc2cc1OC [TAS-115]
[1]
  HGF, and VEGF-induced phosphorylation of signaling factors (AKT and ERK1/2): suppressed
[2]; after single administration, part 1
  dose dependence of AUC0–24 / systemic exposure: increased almost dose-proportionally; also recorded: increased dose-proportionally over the tested range from 200 mg to 650 mg
[2]; [3]
  geometric mean ratio (90% CI) of AUC0–24, fed to empty stomach condition: 0.812 (0.414–1.593)
  geometric mean ratio (90% CI) of Cmax, fed to empty stomach condition: 0.545 (0.243–1.224)
[2]; oral, 200 mg/day, Part 1, Day 1 (single administration), 200 mg/day, n=2
  half-life: 15.2 h
[2]; [4]
  AUC(0-t): 20000 ng·h/mL
  Cmax: 2490 ng/mL
[2]; oral, 200 mg/day, Part 1, Day 1 (single administration), 200 mg/day, n=3, read-out: tmax Median
  Tmax: 1 h
[2]; [5]
  AUC(0-t): 22700 ng·h/mL
  Cmax: 2950 ng/mL
  half-life: 26.6 h
[2]; oral, 200 mg/day, Part 1, Day 8 (multiple administration), 200 mg/day, n=3, read-out: tmax Median
  Tmax: 1 h
[2]; [6]
  AUC(0-t): 23200 ng·h/mL
  Cmax: 3500 ng/mL
  half-life: 20.4 h
[2]; oral, 300 mg/day, Part 1, Day 1 (single administration), 300 mg/day, n=3, read-out: tmax Median
  Tmax: 1 h
[2]; [7]
  AUC(0-t): 32500 ng·h/mL
  Cmax: 3900 ng/mL
  half-life: 15.9 h
[2]; oral, 300 mg/day, Part 1, Day 8 (multiple administration), 300 mg/day, n=2, read-out: tmax Median
  Tmax: 1.5 h
[2]; [8]
  AUC(0-t): 28800 ng·h/mL
  Cmax: 4540 ng/mL
  half-life: 12.6 h
[2]; oral, 450 mg/day, Part 1, Day 1 (single administration), 450 mg/day, n=3, read-out: tmax Median
  Tmax: 1 h
[2]; [9]
  AUC(0-t): 37000 ng·h/mL
  Cmax: 4310 ng/mL
  half-life: 11.4 h
[2]; oral, 450 mg/day, Part 1, Day 8 (multiple administration), 450 mg/day, n=3, read-out: tmax Median
  Tmax: 1 h
[2]; [10]
  AUC(0-t): 39300 ng·h/mL
  Cmax: 4760 ng/mL
[2]; oral, 650 mg/day, Expansion part, Empty Stomach, 650 mg/day, n=6, read-out: tmax Median
  Tmax: 2 h
[2]; [11]
  AUC(0-t): 41700 ng·h/mL
  Cmax: 3900 ng/mL
[2]; oral, 650 mg/day, Expansion part, Fed, 650 mg/day, n=6, read-out: tmax Median
  Tmax: 5 h
[2]; [12]
  AUC(0-t): 59700 ng·h/mL
  Cmax: 7700 ng/mL
  half-life: 10.3 h
[2]; oral, 650 mg/day, Part 1, Day 1 (single administration), 650 mg/day, n=6, read-out: tmax Median
  Tmax: 1 h
[2]; oral, 650 mg/day, Part 1, Day 8 (multiple administration), 650 mg/day, n=4
  half-life: 8.7 h
[2]; [13]
  AUC(0-t): 54500 ng·h/mL
  Cmax: 5040 ng/mL
[2]; oral, 650 mg/day, Part 1, Day 8 (multiple administration), 650 mg/day, n=5, read-out: tmax Median
  Tmax: 2 h
[2]; oral, 650 mg/day, Part 2, Day 1 (single administration), 650 mg/day, n=5
  half-life: 14.5 h
[2]; [14]
  AUC(0-t): 49800 ng·h/mL
  Cmax: 7510 ng/mL
[2]; oral, 650 mg/day, Part 2, Day 1 (single administration), 650 mg/day, n=6, read-out: tmax Median
  Tmax: 1 h
[2]; [15]
  AUC(0-t): 56700 ng·h/mL
  Cmax: 7370 ng/mL
  half-life: 16.8 h
[2]; oral, 650 mg/day, Part 2, Day 19 (multiple administration), 650 mg/day, n=6, read-out: tmax Median
  Tmax: 1 h
[2]; [16]
  AUC(0-t): 37800 ng·h/mL
  Cmax: 4910 ng/mL
  half-life: 13.7 h
[2]; oral, 800 mg/day, Part 1, Day 1 (single administration), 800 mg/day, n=6, read-out: tmax Median
  Tmax: 1 h
[2]; [17]
  AUC(0-t): 44600 ng·h/mL
  Cmax: 5220 ng/mL
  half-life: 12.8 h
[2]; oral, 800 mg/day, Part 1, Day 8 (multiple administration), 800 mg/day, n=6, read-out: tmax Median
  Tmax: 1.5 h
[2]; po, oral administration, across dose levels, read-out: median time to maximum concentration (tmax)
  Tmax: 1 to 2 h
[2]; multiple dosing for 8 days, part 1
  accumulation: no accumulation
Recombinant VEGFR2
  IC50: 0.03 µM

— publication PMC7340670, “Phase I study of TAS-115, a novel oral multi-kinase inhibitor, in patients with advanced solid tumors” (Investigational New Drugs, 2019)
